# Assay results as given in US8481551B2, “Gyrase and topoisomerase IV inhibitors” (Vertex Pharmaceuticals Incorporated, priority 2011, dated 2013).
# Counter-ions that a name gives are not always drawn. Like-named read-outs stand apart in the source and are kept apart here.
# Experiments:
# Staphylococcus aureus = test: microbe, parasite or virus in culture; type: cell-based
# [1] = system: Staphlococcus epidermidis; test: Gyrase MIC, microdilution broth method (Protocol 1); type: cell-based, Staphylococcus epidermidis; details: 35 isolates tested; for MIC90: Staphylococcus epidermidis
# Haemophilus influenzae = test: Gyrase MIC against Gram negatives, microdilution broth method (Protocol 2); type: cell-based; details: for MIC90 / MIC Range: Haemophilus influenzae, 55 isolates tested
# Escherichia coli = test: as above; type: cell-based; details: for MIC90: 12 isolates tested
# Klebsiella pneumoniae = test: as above; type: cell-based; details: for MIC90: Klebsiella pneumoniae, 12 isolates tested
# Proteus mirabilis = test: as above; type: cell-based; details: 12 isolates tested
# Clostridium difficile = test: Gyrase MIC, agar dilution method (Protocol 3); type: cell-based; details: for MIC / MIC90: Clostridioides difficile; for MIC: ATCCBAA1382, Clostridium difficile ATCC BAA-1382; for MIC90 / MIC Range: Clostridium difficile, 16 isolates tested
# Neisseria gonorrhoeae = test: Gyrase MIC, agar dilution method (Protocol 3); type: cell-based; details: for MIC90 / MIC Range: Neisseria gonorrhoeae, 13 isolates tested
# Neisseria meningitidis = test: Gyrase MIC, agar dilution method (Protocol 3); type: cell-based; details: 12 isolates tested
# [2] = system: Bacteroides and Parabacter spp.; test: Gyrase MIC, agar dilution method (Protocol 3); type: cell-based; details: 26 isolates tested
# Fusobacterium spp. = test: Gyrase MIC, agar dilution method (Protocol 3); type: cell-based; details: 16 isolates tested
# Prevotella spp. = test: Gyrase MIC, agar dilution method (Protocol 3); type: cell-based; details: 13 isolates tested
# Mycobacterium avium = test: MIC determination procedure for Mycobacterium species (Protocol 4); type: cell-based
# N. asteroids = test: as above; type: cell-based; details: N. asteroids 2039
# N. nova = test: as above; type: cell-based; details: N. nova 10
# Enterococcus faecium = test: Gyrase MIC, microdilution broth method (Protocol 1); details: for MIC Range: 33 isolates tested
# Streptococcus pneumoniae = test: as above
# Pseudomonas aeruginosa = test: Gyrase MIC against Gram negatives, microdilution broth method (Protocol 2)
# [3] = ATCC29213, Staphylococcus aureus ATCC 29213, Protocol 1, read-out: MIC
# [4] = ATCC29213, Staphylococcus aureus ATCC 29213 GyrB T173I, Protocol 1
# [5] = ATCC29213, Staphylococcus aureus ATCC 29213 with Mouse Serum, Protocol 1, read-out: MIC
# [6] = ATCC29213, Staphylococcus aureus ATCC 29213 with Rat Serum, Protocol 1, read-out: MIC
# [7] = ATCC49247, Haemophilus influenzae ATCC 49247
# [8] = Haemophilus influenzae Rd0894 (AcrA-)
# [9] = ATCC25922, Escherichia coli ATCC 25922
# [10] = ATCC700603, Klebsiella pneumoniae ATCC 700603
# [11] = ATCCBAA1705, Klebsiella pneumoniae ATCC BAA-1705
# [12] = ATCC35541, Neisseria gonorrhoeae ATCC 35541
# [13] = ATCC49226, Neisseria gonorrhoeae ATCC 49226
# [14] = ATCC49624, Enterococcus faecium ATCC 49624, Protocol 1
# [15] = ATCC49624, Enterococcus faecium ATCC 49624 with Laked Horse Blood, Protocol 1
structure (smiles),measurement,setting,value
"CCNC(=O)Nc1nc2cc(-c3cnc(C(C)(C)O)nc3)cc([C@H]3CCCO3)c2[nH]1 [Compound 13, methanesulfonic acid salt of 1-ethyl-3-[5-[2-(1-hydroxy-1-methyl-ethyl)pyrimidin-5-yl]-7-[(2R)-tetrahydrofuran-2-yl]-1H-benzimidazol-2-yl]urea]",MIC90,"Staphylococcus aureus; 67 isolates tested, Protocol 1",0.25 µg/mL
same,MIC Range,"Staphylococcus aureus; 67 isolates tested, Protocol 1",0.03 to 0.5 µg/mL
same,MIC,Staphylococcus aureus; [3],0.13 µg/mL
same,MIC,Staphylococcus aureus; [4],1.29 µg/mL
same,MIC,"Staphylococcus aureus; ATCC29213, Staphylococcus aureus ATCC 29213 with Human Serum, Protocol 1, read-out: MIC",0.31 µg/mL
same,MIC,Staphylococcus aureus; [5],2 µg/mL
same,MIC,Staphylococcus aureus; [6],0.53 µg/mL
same,MIC Range,[1],0.03 to 0.25 µg/mL
same,MIC90,[1],0.12 µg/mL
same,MIC,Haemophilus influenzae; [7],1 µg/mL
same,MIC,Haemophilus influenzae; [8],0.14 µg/mL
same,MIC90,Haemophilus influenzae,2 µg/mL
same,MIC Range,Haemophilus influenzae,0.25 to 8 µg/mL
same,MIC90,Escherichia coli,> 8 µg/mL
same,MIC,Escherichia coli; [9],16 µg/mL
same,MIC,Escherichia coli; Escherichia coli AG100 WT,> 16 µg/mL
same,MIC,Escherichia coli; Escherichia coli AG100 tolC,0.11 µg/mL
same,MIC,Escherichia coli; Escherichia coli CHE30,> 16 µg/mL
same,MIC,Escherichia coli; Escherichia coli CHE30 tolC,0.5 µg/mL
same,MIC,Escherichia coli; Escherichia coli MC4100,> 16 µg/mL
same,MIC,Escherichia coli; Escherichia coli MC4100 tolC,1 µg/mL
same,MIC,Klebsiella pneumoniae; [10],> 16 µg/mL
same,MIC,Klebsiella pneumoniae; [11],> 16 µg/mL
same,MIC90,Klebsiella pneumoniae,> 8 µg/mL
same,MIC90,Proteus mirabilis,> 8 µg/mL
same,MIC,Clostridium difficile,1 µg/mL
same,MIC90,Clostridium difficile,1 µg/mL
same,MIC Range,Clostridium difficile,0.5 to 16 µg/mL
same,MIC,Neisseria gonorrhoeae; [12],1.3 µg/mL
same,MIC,Neisseria gonorrhoeae; [13],2.3 µg/mL
same,MIC90,Neisseria gonorrhoeae,1 µg/mL
same,MIC Range,Neisseria gonorrhoeae,0.5-1^ μg/ml
same,MIC90,Neisseria meningitidis,0.12 µg/mL
same,MIC Range,Neisseria meningitidis,0.015 to 0.25 µg/mL
same,MIC90,[2],> 16 µg/mL
same,MIC90,Fusobacterium spp.,2 µg/mL
same,MIC Range,Fusobacterium spp.,1 to 4 µg/mL
same,MIC90,Prevotella spp.,> 16 µg/mL
same,MIC,Mycobacterium avium; M. avium 3404.4,0.94 µg/mL
same,MIC,Mycobacterium avium; M. avium Far,0.94 µg/mL
same,MIC,Mycobacterium avium; Mycobacterium avium 103,0.47 µg/mL
same,MIC,N. asteroids,8 µg/mL
same,MIC,N. nova,8 µg/mL
same,MIC90,Enterococcus faecium,0.5 µg/mL
same,MIC Range,Enterococcus faecium; Protocol 1,0.12 to 0.5 µg/mL
same,MIC,Enterococcus faecium; [14],0.25 µg/mL
same,MIC,Enterococcus faecium; [15],0.39 µg/mL
same,MIC90,Streptococcus pneumoniae,0.06 µg/mL
same,MIC Range,"Streptococcus pneumoniae; 67 isolates tested, Protocol 1",0.015 to 0.06 µg/mL
same,MIC,Streptococcus pneumoniae; ATCC10015,0.022 µg/mL
same,MIC,Pseudomonas aeruginosa,0.33 µg/mL
same,MIC90,Pseudomonas aeruginosa,> 8 µg/mL
same,MIC,Pseudomonas aeruginosa; PAO1,> 16 µg/mL
"CCNC(=O)Nc1nc2cc(-c3cnc(C(C)(C)O)nc3)c(F)c([C@H]3CCCO3)c2[nH]1 [Compound 23A, methanesulfonic acid salt of 1-ethyl-3-[6-fluoro-5-[2-(1-hydroxy-1-methyl-ethyl)pyrimidin-5-yl]-7-[(2R)-tetrahydrofuran-2-yl]-1H-benzimidazol-2-yl]urea]",MIC90,"Staphylococcus aureus; 67 isolates tested, Protocol 1",0.03 µg/mL
same,MIC,Staphylococcus aureus; [3],0.021 µg/mL
same,MIC,Staphylococcus aureus; [4],0.3 µg/mL
same,MIC,Staphylococcus aureus; [5],0.5 µg/mL
same,MIC,Staphylococcus aureus; [6],0.18 µg/mL
same,MIC Range,[1],0.008 to 0.03 µg/mL
same,MIC90,[1],0.03 µg/mL
same,MIC,Haemophilus influenzae; [7],0.5 µg/mL
same,MIC,Haemophilus influenzae; [8],0.041 µg/mL
same,MIC90,Haemophilus influenzae,1 µg/mL
same,MIC Range,Haemophilus influenzae,0.06-2^ μg/ml
same,MIC90,Escherichia coli,> 8 µg/mL
same,MIC,Escherichia coli; [9],12 µg/mL
same,MIC,Escherichia coli; Escherichia coli AG100 WT,4 µg/mL
same,MIC,Escherichia coli; Escherichia coli AG100 tolC,0.063 µg/mL
same,MIC,Escherichia coli; Escherichia coli CHE30,8 µg/mL
same,MIC,Escherichia coli; Escherichia coli CHE30 tolC,0.125 µg/mL
same,MIC,Escherichia coli; Escherichia coli MC4100,> 16 µg/mL
same,MIC,Escherichia coli; Escherichia coli MC4100 tolC,0.25 µg/mL
same,MIC,Klebsiella pneumoniae; [10],16 µg/mL
same,MIC,Klebsiella pneumoniae; [11],12 µg/mL
same,MIC90,Klebsiella pneumoniae,> 8 µg/mL
same,MIC90,Proteus mirabilis,> 8 µg/mL
same,MIC,Clostridium difficile,0.38 µg/mL
same,MIC90,Clostridium difficile,0.25 µg/mL
same,MIC Range,Clostridium difficile,0.06-4^ μg/ml
same,MIC,Neisseria gonorrhoeae; [12],0.42 µg/mL
same,MIC,Neisseria gonorrhoeae; [13],1 µg/mL
same,MIC90,Neisseria gonorrhoeae,0.25 µg/mL
same,MIC Range,Neisseria gonorrhoeae,0.12 to 0.25 µg/mL
same,MIC90,Neisseria meningitidis,0.03 µg/mL
same,MIC Range,Neisseria meningitidis,0.008 to 0.06 µg/mL
same,MIC90,[2],16 µg/mL
same,MIC Range,[2],0.12 to 16 µg/mL
same,MIC90,Fusobacterium spp.,> 16 µg/mL
same,MIC90,Prevotella spp.,16 µg/mL
same,MIC Range,Prevotella spp.,0.06 to 16 µg/mL
same,MIC,Mycobacterium avium; M. avium 3404.4,0.23 µg/mL
same,MIC,Mycobacterium avium; M. avium Far,0.23 µg/mL
same,MIC,Mycobacterium avium; Mycobacterium avium 103,0.18 µg/mL
same,MIC,N. asteroids,1 µg/mL
same,MIC,N. nova,1 µg/mL
same,MIC90,Enterococcus faecium,0.12 µg/mL
same,MIC Range,Enterococcus faecium; Protocol 1,0.003 to 0.25 µg/mL
same,MIC,Enterococcus faecium; [14],0.11 µg/mL
same,MIC,Enterococcus faecium; [15],0.11 µg/mL
same,MIC,Pseudomonas aeruginosa,0.25 µg/mL
same,MIC90,Pseudomonas aeruginosa,> 8 µg/mL
same,MIC,Pseudomonas aeruginosa; PAO1,> 16 µg/mL
